Consider one compound from patent US11197836B2, “Topical vasoconstrictor preparations and methods for protecting cells during cancer chemotherapy and radiotherapy” (WISCONSIN ALUMNI RESEARCH FOUNDATION, priority 2005, dated 2021).

The data set deals with rat skin. As to the kind of experiment: Penetration of topically applied dye into rat skin. The format is in vivo. The following applies: applied to rat skin in an alcohol:water solution. The text has this:
It is preferred for certain embodiments of the invention directed to skin applications to optimize ethanol, propylene glycol, and water percentages to enable sufficient delivery of epinephrine, phenylephrine, norepinephrine, or methoxamine to the skin vasculature, to achieve transient, vasculature constriction, and by so-doing, confer protection to the stem cells of the epidermis and hair follicle. The primary skin vasculature is located within the dermis, largely creating a vascular web surrounding the hair follicle bulbs (shown in FIG. 1). Topical drug delivery to this vasculature is primarily achieved by “transfolicular” delivery, i.e., topically-applied alcohol:water solutions travel within the hair shaft channels to the hair follicle bulb, and then diffuse through the stem cells that comprise the hair follicle bulb to access the dermal vasculature surrounding the bulb. For topical solutions to access dermal vasculature, a minimum percentage of alcohol in the topical delivery vehicle is preferred to enable: i) dissolution or softening of sebaceous oil present in human hair shaft channels, and ii) penetration of the oil-stratum corneum matrix.

Consider `CCN(CC)c1ccc2nc3c4ccccc4c(=O)cc-3oc2c1` [Nile Red], for which the skin penetration entry was “penetrates both the stratum corneum and underlying epidermis”.
